Reference: patent US7923230B2, “Neurodegenerative protein aggregation inhibition methods and compounds” (The Board of Trustees of the Leland Stanford Junior …, priority 2003, dated 2011)

Legend:
Rat hippocampal neurons [1] = experiment: Tunel staining / immunofluorescence microscopy of neurons exposed to Aβ; assay type: cell-based; details: for Tunel positive cells / Aβ toxicity: Aβ 25 uM, drug and FKBP 1 uM, incubated with Aβ prior to addition
Procedure: Immunofluorescence Microscopy. Rat hippocampal neurons (P0) were cultured 10 days on Matrigel-coated glass coverslips (Deckgläser, Germany) in 24-well plates (Corning) at 37° C. and 5% CO2. Aβ solutions were prepared and applied as above. The final concentration of Aβ was 25 uM and drug and FKBP were present at 1 uM. Following a two-day incubation, cells were prepared for microscopy as described (R. Kayed, et al., Science 300, 486-489 (2003).

FKBP12 = biological target: T1, FKBP12 (Homo sapiens, UniProt P62942); experiment: Surface plasmon resonance, binding to immobilized FKBP12; details: SPR
T1 construct: made in house
T1 sequence (P62942 whole entry): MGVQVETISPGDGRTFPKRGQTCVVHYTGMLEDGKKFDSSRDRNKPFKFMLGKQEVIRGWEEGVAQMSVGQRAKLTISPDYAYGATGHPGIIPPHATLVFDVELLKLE
Procedure: (§1) Surface Plasmon Resonance. Amide coupling was used to generate a carboxymethyldextran (CMS; BIAcore, Uppsala, Sweden) sensor chip bearing a mockimmobilized surface on flow chamber 1 (Fc1), 950 RU of Aβ(1-40) (SEQ ID NO: 3) (AnaSpec, San Jose, Calif.) on Fc2, and 2800 RU of bacterially-expressed recombinant FKBP12 on Fc3. The regeneration conditions were as follows: for removing analyte from Aβ surfaces (4 M guanidine HCl, 10 mM Tris buffer pH 8.0) and for removing analyte from the FKBP surface (750 mM NaCl, 250 mM NaOH). To calculate KD1 and KD2 (±SEM) for Aβ binding (in part C), the control signal was subtracted and data was fit according to the method of Cairo et al. (Biochemistry 41, 8620-8629 (2002). In each case, eight concentrations of analyte distributed around the KD were injected in duplicate in the running buffer (HBS-EP; BIAcore). Congo red is not uniquely specific for Aβ and, consistent with this, it also binds FKBP, but at a KD 20-fold higher than SLF-CR.

Aβ(1-42) [2] = biological target: T2, Aβ(1-42) (Homo sapiens, UniProt P05067); experiment: Light scattering (turbidity) of Aβ(1-42) fibrillogenesis; assay type: biochemical
T2 construct: purchased AnaSpec, San Jose, Calif; host or cells: synthetic peptide
T2 sequence (P05067 672-713): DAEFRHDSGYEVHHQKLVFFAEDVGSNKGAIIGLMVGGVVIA
Procedure: Light Scattering. Fresh A13(1-42) (Anaspec, San Jose, Calif.) (SEQ ID NO: 2) was prepared by resuspending the peptide in […] pH 9.5 to 10, sonicating for 5 minutes, and passing the resulting solutions through a 10 kDa filter (YM-10; Millipore, Bedford, Mass.) (31). Stock solutions (100 μM in 2 mM NaOH) were stored at −80° C. and diluted to 25 uM with PBS pH 7.2 to initiate fibrillogenesis. Identical methods were used to prepare the Aβ(1-42) (SEQ ID NO: 2) solutions utilized for TEM, AFM, MTT, Tunel and thioflavin T experiments. Turbidity was measured at 30° C. with orbital shaking in half area, nonbinding surface 96-well plates (Corning) on a TECAN GENios plate reader. The total volume was 50 uL and the concentration of FKBP was 1 uM. The results are representative of two independent experiments each performed in triplicate.

Aβ(1-42) [3] = biological target: T2, Aβ(1-42); experiment: Thioflavin T fluorescence assay of Aβ aggregation; assay type: biochemical; details: highest drug concentrations
Procedure: Fibrillization Procedure. Purified amyloid beta (1-42) (SEQ ID NO: 2) was purchased from AnaSpec and used without further purification. Fibrillization conditions are based on those previously described by Gordon and Meredith (Gordon, D. J. and Meredith, S. C. (2003) Biochemistry 42:475-485). Briefly, peptide was dissolved in PBS to a final concentration of 100 uM. To this solution, was added either FKBP12 (to a final concentration of 1 uM) or an equivalent volume of buffer alone (100 mM NaCl, 10 mM Tris-HCl pH 7.0). Additionally, either agent (dissolved in DMF) or DMF alone was added. These mixtures were placed at room temperature for at least 4 days without disruption. Thioflavin T assay. […] The mixture was vortexed briefly and the fluorescence emission maximum measured. For the dose dependence experiment, the emission wavelength was recorded at 490 nm. […] Turbidity was measured at 30° C. with orbital shaking in half area, nonbinding surface 96-well plates (Corning) on a TECAN GENios plate reader. […] Fluorescence was measured on a SpectraMax Gemini (Molecular Devices, Sunnyvale, Calif.), using an excitation wavelength of 446 nm (±5 nm) and an emission of 490 nm (±5 nm). The data was fit to sigmoidal curves using DeltaGraph (DeltaPoint, Inc) and the IC50 for each treatment recorded. […] A linear relationship between thioflavin T fluorescence and percent aggregation was used for simplicity.

Aβ(1-42) [4] = biological target: T2, Aβ(1-42); experiment: Transmission electron microscopy of Aβ fibrils; assay type: biochemical; details: for size or abundance of Aβ fibrils (TEM): 1 uM drug, 1 μM FKBP where present
Procedure: Transmission Electron Microscopy (TEM). Electron microscopy was performed essentially as previously described (Gordon, D. J. and Meredith, S. C. (2003) Biochemistry 42:475-485). Briefly, solutions subjected to the fibrillization conditions described above were applied to Formvar coated 400-mesh glow-discharged copper grids and contrasted with 1% uranyl acetate solution. Grids were analyzed at 80 kV and a magnification of 100,000×. Transmission Electron Microscopy. TEM was conducted using 300 mesh formvar-coated copper grids and 1% uranyl acetate stain on a JEOL TEM1230 and imaged with a Gatan 967 slow-scan CCD at 80 kV. Samples were incubated for 4 days at 22° C. in PBS pH 7.2 containing 25 uM Aβ(1-42) (SEQ ID NO: 2), 1 μM FKBP and 1 uM drug, where appropriate. The protocol used to prepare Aβ can influence fibrillogenesis and the reproducibility of the assays. Therefore, it can be useful to examine Aβ aggregation under a variety of conditions. In addition to the hydroxide method used above, stock solutions of Aβ were also prepared using a trifluoroacetic acid (TFA) protocol (Crystal, et al., J. Neurochem. 86, 1359-1368 (2003). TEM on samples originated from these stock solutions yielded similar results, although the typical size of the fibrils was considerably shorter.

Rat hippocampal neurons [5] = experiment: MTT cell viability assay, neurons exposed to pre-treated Aβ(1-42); assay type: cell-based; details: high molar concentrations of Aβ; SLF-Benz-CR at 100 nM
Procedure: Cell Viability Assay. Rat hippocampal (E19.5 and P0) neurons were prepared as previously described (Graef, et al., Nature 401, 703-708 (1999). Fresh Aβ(1-42) (100 uM) (SEQ ID NO: 2) was prepared under basic conditions and incubated with inhibitors for two days at 22° C. in PBS pH 7.2 and then diluted 1:4 with culture media and applied to neurons. MTT assays were conducted as per manufacturer's specifications after two additional days of incubation at 37° C. and 5% CO2. The inhibitor concentrations are the in vitro incubation values.

Aβ(1-40) = biological target: T3, Aβ(1-40) (Homo sapiens, UniProt P05067); experiment: Surface plasmon resonance, binding to immobilized Aβ(1-40)
T3 construct: purchased AnaSpec, San Jose, Calif; host or cells: synthetic peptide
T3 sequence (P05067 672-711): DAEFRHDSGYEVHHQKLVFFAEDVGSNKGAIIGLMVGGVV
Procedure: as §1

Aβ(1-42) [6] = experiment: Atomic force microscopy of Aβ aggregates; assay type: biochemical; details: samples containing Aβ(1-42) and FKBP
Procedure: Atomic Force Microscopy. Samples for AFM were prepared as for TEM, above, applied to a clean silicon surface, washed twice with dH2O, dried, and imaged at a scan rate of 1 Hz using a silicon probe (TESP) on an AFM Nanoscope Dimension 3000 (Digital Instruments) in Tapping Mode (C. Goldsbury, et al, J. Mol. Biol. 285, 33-39 (1999). The dimensions of the globular aggregates in the samples treated with SLF-CR/FKBP were approximated using NIH Image.

Molecule	binding to immobilized FKBP (FKBP12)	effect on Aβ aggregation / turbidity (Aβ(1-42) [2])	size or abundance of Aβ fibrils (TEM) (Aβ(1-42) [4])	Tunel positive cells / Aβ toxicity (Rat hippocampal neurons [1])	further results
CC[C@@]1(O)C(=O)OCc2c1cc1n(c2=O)Cc2cc3ccccc3nc2-1 [camptothecin, reference compound]	–	–	–	–	remaining cells positive for Tunel (Rat hippocampal neurons [1]; after two days): 36%
CCC(C)(C)C(=O)C(=O)N1CCCC[C@H]1C(=O)O[C@H](CCc1ccc(OC)c(OC)c1)c1cccc(OCC(=O)O)c1 [SLF]	comparable affinity	–	–	–	–
Nc1c(/N=N/c2ccc(-c3ccc(/N=N/c4cc(S(=O)(=O)O)c5ccccc5c4N)cc3)cc2)cc(S(=O)(=O)O)c2ccccc12 [CR, Congo red, reference compound]	–	modest inhibitor of turbidity	ineffective	failed to substantially reduce the number of Tunel positive cells	KD for FKBP, fold higher than SLF-CR (FKBP12): 20 fold; thioflavin T fluorescence (Aβ(1-42) [3]): failed to fully block thioflavin T fluorescence; rescue of neurons (Rat hippocampal neurons [5]): unable to rescue
CCC(C)(C)C(=O)C(=O)N1CCCCC1C(=O)OC(CCc1ccc(OC)c(OC)c1)c1cccc(OCC(=O)Nc2c(N=Nc3ccc(-c4ccc(N=Nc5cc(S(=O)(=O)O)c6ccccc6c5N)cc4)cc3)cc(S(=O)(=O)O)c3ccccc23)c1 (stereo not drawn) [SLF-CR]	comparable affinity	–	ineffective	failed to substantially reduce the number of Tunel positive cells	affinity for Aβ (Aβ(1-40); immobilized Aβ(1-40), SPR): not significantly different from that of CR; SPR response on immobilized amyloid (Aβ(1-40); ternary complex test, compound alone or pre-incubated with FKBP): ~140 RUs; recruitment of FKBP to Aβ by electron microscopy (Aβ(1-42) [4]): confirmed; fibril formation (AFM) (Aβ(1-42) [6]): failed to form fibrils
FKBP: bacterially-expressed recombinant FKBP12, FK506-binding protein, prolyl isomerase	–	did not interfere with Aβ aggregation	does not influence the formation or architecture of Aβ fibrils	failed to substantially reduce the number of Tunel positive cells	–
